Experimental data published in ChEMBL document CHEMBL1201862, “PubChem BioAssay data set” (2004).
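Method: 48-hour compound exposure of cells in 96-well plates, five concentrations, linear interpolation of endpoints. Here, GI50 denotes the concentration required for 50% inhibition of growth.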 The source made the active and inactive calls. Cut-off read from the data, not from the text of the source: active = GI50 up to about 1.1 µM and inactive = higher.

Key:
Assay in all cases: DTP human tumour cell line panel, 48 h
MDA-MB-231 = tested on: MDA-MB-231
SK-MEL-5 = tested on: SK-MEL-5
OVCAR-4 = tested on: OVCAR-4
SNB-75 = tested on: SNB-75
Malme-3M = tested on: Malme-3M
SN12C = tested on: SN12C
OVCAR-5 = tested on: OVCAR-5
HT-29 = tested on: HT-29
A549 = tested on: A549
COLO 205 = tested on: COLO 205
UACC-62 = tested on: UACC-62
BT-549 = tested on: BT-549
UO-31 = tested on: UO-31
786-0 = tested on: 786-0
MDA-N = tested on: MDA-N
IGROV-1 = tested on: IGROV-1
MDA-MB-435 = tested on: MDA-MB-435
M14 = tested on: M14
SR = tested on: SR
NCI-H226 = tested on: NCI-H226

Structure (SMILES)	GI50 (MDA-MB-231)	GI50 (SK-MEL-5)	GI50 (OVCAR-4)	GI50 (SNB-75)	GI50 (Malme-3M)	GI50 (SN12C)	GI50 (OVCAR-5)	GI50 (HT-29)	GI50 (A549)	GI50 (COLO 205)	GI50 (UACC-62)	GI50 (BT-549)	GI50 (UO-31)	GI50 (786-0)	GI50 (MDA-N)	GI50 (IGROV-1)	GI50 (MDA-MB-435)	GI50 (M14)	GI50 (SR)	GI50 (NCI-H226)
S=C(N/N=C/c1ccccn1)N1CC2CCC(CC2)C1	< 0.01 µM (active)	< 0.01 µM (active)	0.0308 µM (active)	0.2 µM (active)	< 0.047 µM (active)	< 0.0216 µM (active)	< 0.024 µM (active)	< 0.01 µM (active)	< 0.01 µM (active)	< 0.01 µM (active)	< 0.0365 µM (active)	< 0.01 µM (active)	< 0.0111 µM (active)	< 0.01 µM (active)	0.0188 µM (active)	< 0.01 µM (active)	0.0404 µM (active)	< 0.01 µM (active)	–	–
CCc1nc(N)nc(N)c1-c1ccc(Cl)c([N+]#N)c1	> 100 µM (inactive)	46.2 µM (inactive)	> 100 µM (inactive)	> 100 µM (inactive)	> 100 µM (inactive)	50.6 µM (inactive)	> 100 µM (inactive)	33.3 µM (inactive)	20.6 µM (inactive)	56 µM (inactive)	41 µM (inactive)	> 100 µM (inactive)	78.3 µM (inactive)	48.2 µM (inactive)	–	6.58 µM (inactive)	38.7 µM (inactive)	65.5 µM (inactive)	22.9 µM (inactive)	> 100 µM (inactive)
C=CC(=O)NCCC(=O)OCn1cc(F)c(=O)[nH]c1=O	–	3.67 µM (inactive)	0.759 µM (active)	19.4 µM (inactive)	4.59 µM (inactive)	0.838 µM (active)	20.6 µM (inactive)	4.12 µM (inactive)	2.36 µM (inactive)	1.37 µM (inactive)	4.08 µM (inactive)	> 100 µM (inactive)	2.33 µM (inactive)	2.92 µM (inactive)	1.56 µM (inactive)	4.33 µM (inactive)	5.32 µM (inactive)	9.89 µM (inactive)	2.12 µM (inactive)	13.3 µM (inactive)
COc1ccc(CCNC(=O)CCc2ccccc2CO)cc1OC	> 100 µM (inactive)	> 100 µM (inactive)	> 100 µM (inactive)	> 100 µM (inactive)	–	> 100 µM (inactive)	> 100 µM (inactive)	> 100 µM (inactive)	> 100 µM (inactive)	> 100 µM (inactive)	> 100 µM (inactive)	> 100 µM (inactive)	> 100 µM (inactive)	> 100 µM (inactive)	–	> 100 µM (inactive)	> 100 µM (inactive)	> 100 µM (inactive)	> 100 µM (inactive)	> 100 µM (inactive)
CCN(CC)Cc1ccc(C(=S)Nc2ccc(Cl)cc2)s1	–	4.24 µM (inactive)	10 µM (inactive)	–	–	–	11.3 µM (inactive)	2.91 µM (inactive)	11.2 µM (inactive)	1.99 µM (inactive)	9.57 µM (inactive)	5.18 µM (inactive)	11.4 µM (inactive)	13.1 µM (inactive)	10.7 µM (inactive)	11.4 µM (inactive)	9.91 µM (inactive)	3.64 µM (inactive)	3.64 µM (inactive)	–
COc1ccc2[nH]c3c(C)c4cc[n+](C)cc4c(C)c3c2c1	–	1.18 µM (inactive)	1.91 µM (inactive)	0.121 µM (active)	0.733 µM (active)	0.0834 µM (active)	6.67 µM (inactive)	3.23 µM (inactive)	–	–	2.16 µM (inactive)	1.57 µM (inactive)	38.5 µM (inactive)	–	–	1.96 µM (inactive)	–	–	–	0.232 µM (active)
COc1cc(/C=C/c2cc(=O)cc(/C=C/c3ccc(O)c(OC)c3)o2)ccc1O	26.4 µM (inactive)	13.6 µM (inactive)	16.4 µM (inactive)	29.9 µM (inactive)	> 69.5 µM (inactive)	> 60.3 µM (inactive)	> 100 µM (inactive)	> 80.4 µM (inactive)	64.1 µM (inactive)	> 100 µM (inactive)	44.1 µM (inactive)	99.8 µM (inactive)	> 100 µM (inactive)	23.3 µM (inactive)	–	> 100 µM (inactive)	35.5 µM (inactive)	> 100 µM (inactive)	> 23.6 µM (inactive)	29.3 µM (inactive)
NNC1=N/C(=C\c2ccccc2O)C(=O)N1	35.4 µM (inactive)	35 µM (inactive)	–	> 100 µM (inactive)	43.9 µM (inactive)	40.7 µM (inactive)	65.3 µM (inactive)	53.6 µM (inactive)	30.9 µM (inactive)	29.6 µM (inactive)	48.1 µM (inactive)	37.9 µM (inactive)	16.6 µM (inactive)	20.7 µM (inactive)	42.2 µM (inactive)	36.2 µM (inactive)	61.4 µM (inactive)	27.2 µM (inactive)	–	47.5 µM (inactive)
